The target of one assay is T1, TYK2-JH2 domain (Homo sapiens, UniProt P29597).
T1 construct: JAK1-JH2 domain or TYK2-JH2 domain enzyme in assay buffer
Kind of assay: Binding activity test for JH2 domain of TYK2 (Tb-antibody/tracer FRET). As for the experimental part: Binding Activity test for JH2 domain of JAK1 and TYK2 […] Add 8μL/well in echo source plate, echo will add 75nL/well with 3-fold serial dilution for 11 points in assay plate. 75nL DMSO for high control and low control. […] For low control, add 5μL/well assay buffer. And then spin down at 1000rpm and centrifuge for 30 seconds. After enzyme system prepared, add 5μL of Tb-antibody solution into each well of assay plate. Spin down at 1000 rpm and centrifuge for 30sec. After Tb-antibody added, also add 5μL of tracer into the assay plate. Spin down at 1000rpm and centrifuge for 30sec. Incubate for […] at 25°C firstly and then continue to incubate the plate at 4°C overnight. Read by envision in FRET mode. The Luminescence value was recorded by a multi-label reader Envision (PerkinElmer). […] Table 2. IC50 on JH2 domain activity (nM)

For assay [1], the system named is Ba/F3-FL-TYK2-P760L cells. Kind of assay: Anti-proliferative assay in engineered Ba/F3 cells (Cell-Titer Glo, 72 h). The class given is cell-based. As to conditions: Mus musculus, concentration that causes 50% growth inhibition, read-out: Baf3-FL-T2P760L. Here is the method:
Dimerization domain of Tel protein fused with JAK kinase domain was permanently transduced into Ba/F3 cells, whose proliferation is dependent on JAK activity in the absence of IL-3 induction. These engineered Ba/F3-FL-TYK2-P760L cells were used to monitor JAK inhibitory activities of the compounds in the cellular. Ba/F3 cells were cultured in RPMI-1640 (Corning) containing 10% fetal bovine serum. Cells were seeded at 2000/well of white flat bottom 96-well plates. The well containing medium only was used as background control. After 24h growth, cells were treated with compounds. The test compounds were dissolved in DMSO to a stock concentration of 20 mM. 3-fold serially diluted compounds for 9 concentrations with top concentration of 20 µM was added into the each well. The final DMSO concentration was 0.1%. The cells continued to grow at 37°C in 5% CO2 for 72 h after compound treatment. The viability was measured by cellular ATP determination using the Cell-Titer Glo luciferase reagent (Promega). The Luminescence value was recorded by a multi-label reader Envision (PerkinElmer). Inhibition Rate was calculated relative to vehicle (DMSO) treated control wells using following formula: % Inhibition = 100−(RLU_compound−RLU_blank)/(RLU_control−RLU_blank) × 100% [formula] wherein • RLU_compound = the relative light unit of cells treated with test compounds • RLU_blank = the relative light unit of medium with DMSO only • RLU_control = the relative light unit of cells treated with DMSO only
Table 4. Ba/F3-FL-TYK2-P760L Cells IC50 Values of Exemplary Compounds

Where [2] appears, read: JH2 domain enzyme; 60 min at 25°C, then 4°C overnight; read-out: TYK2 JH2 Binding IC50.
Where [3] appears, read: BaF3, 72 h, 72 h compound treatment.

The structures appear in SMILES notation. Where two headings read alike, the source gives them in different places.

T1 sequence (P29597 589-875 limits assumed): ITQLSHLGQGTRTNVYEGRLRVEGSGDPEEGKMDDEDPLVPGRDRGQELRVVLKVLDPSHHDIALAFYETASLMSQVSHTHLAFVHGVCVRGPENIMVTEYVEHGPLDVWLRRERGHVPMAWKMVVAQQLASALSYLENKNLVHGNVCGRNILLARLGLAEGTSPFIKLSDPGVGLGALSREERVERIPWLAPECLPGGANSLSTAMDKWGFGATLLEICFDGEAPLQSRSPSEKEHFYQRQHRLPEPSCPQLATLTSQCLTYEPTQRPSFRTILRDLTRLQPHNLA

For the compound `COC(=O)c1cnc(NC(=O)[C@@H]2C[C@@H]2F)cc1Nc1nn(C)c2ccc(C(OC)C(C)(F)F)c(OC)c12` (stereo partly drawn) [Example 116, Methyl 4-((5-(2,2-difluoro-1-methoxypropyl)-4-methoxy-1-methyl-1H-indazol-3-yl)amino)-6-((1S,2S)-2-fluorocyclopropane-1-carboxamido)nicotinate], the IC50 at TYK2-JH2 domain (setting [2]) turned out to be 0.188 nM; in assay [1] (setting [3]), 4.65 nM.
Taken in the same sequence, the figures for `[2H]C([2H])([2H])Oc1c([C@H](OC)C(F)(F)F)ccc2c1c(Nc1cc(NC(=O)C3CC3)ncc1C(=O)OC)nn2C` [Example 120A, Methyl (S)-6-(cyclopropanecarboxamido)-4-((4-(methoxy-d3)-1-methyl-5-(2,2,2-trifluoro-1-methoxyethyl)-1H-indazol-3-yl)amino)nicotinate] were 0.089 nM and 2.71 nM.
The like results for `[2H]C([2H])([2H])Oc1c([C@@H](OC)C(F)(F)F)ccc2c1c(Nc1cc(NC(=O)C3CC3)ncc1C(=O)OC)nn2C` [Example 120B, Methyl (R)-6-(cyclopropanecarboxamido)-4-((4-(methoxy-d3)-1-methyl-5-(2,2,2-trifluoro-1-methoxyethyl)-1H-indazol-3-yl)amino)nicotinate] were, in that order, 0.442 nM and 107 nM.
Taken in the same sequence, the figures for `COC(=O)c1cnc(NC(=O)[C@@H]2C[C@@H]2F)cc1Nc1nn(C)c2ccc(C(O)C(F)(F)F)c(OC)c12` (stereo partly drawn) [Example 122, Methyl 6-((1S,2S)-2-fluorocyclopropane-1-carboxamido)-4-((4-methoxy-1-methyl-5-(2,2,2-trifluoro-1-hydroxyethyl)-1H-indazol-3-yl)amino) nicotinate] were 0.178 nM and 1.16 nM.
In the case of `[2H]C([2H])([2H])CC(=O)c1cnc(NC(=O)C2CC2)cc1Nc1nn(C)c2ccc(C#N)c(OC)c12` [Example 127, N-(4-((5-cyano-4-methoxy-1-methyl-1H-indazol-3-yl)amino)-5-(propanoyl-3,3,3-d3)pyridin-2-yl)cyclopropanecarboxamide], the values for the IC50 (on TYK2-JH2 domain (setting [2]); in assay [1] (setting [3])) were 0.256 nM and 52.3 nM, respectively.
The like results for `COC(=O)c1cnc(NC(=O)C2CC2)cc1Nc1nn(C)c2ccc(C(O)C3(F)CC3)c(OC)c12` (stereo not shown) [Example 128, Methyl 6-(cyclopropanecarboxamido)-4-((5-((1-fluorocyclopropyl)(hydroxy)methyl)-4-methoxy-1-methyl-1H-indazol-3-yl)amino)nicotinate] were, in that order, 0.26 nM and 17.3 nM.
Regarding `CCC(F)(F)c1cnc(NC(=O)C2CC2)cc1Nc1nn(C)c2ccc(C(O)C(F)(F)F)c(OC)c12` (stereo not shown) [Example 129, N-(5-(1,1-difluoropropyl)-4-((4-methoxy-1-methyl-5-(2,2,2-trifluoro-1-hydroxyethyl)-1H-indazol-3-yl)amino)pyridin-2-yl)cyclopropanecarboxamide], the IC50 on TYK2-JH2 domain (setting [2]) was found to be 0.466 nM; in assay [1] (setting [3]), 1.41 nM.
Taken in the same sequence, the figures for `C/C=C(\F)c1cnc(NC(=O)C2CC2)cc1Nc1nn(C)c2ccc(C(O)C(F)(F)F)c(OC)c12` (stereo not shown) [Example 130, (Z)-N-(5-(1-fluoroprop-1-en-1-yl)-4-((4-methoxy-1-methyl-5-(2,2,2-trifluoro-1-hydroxyethyl)-1H-indazol-3-yl)amino)pyridin-2-yl)cyclopropanecarboxamide] were 0.688 nM and 157 nM.
With `[2H]C([2H])([2H])CC(=O)c1cnc(NC(=O)C2CC2)cc1Nc1nn(C)c2ccc(COC)c(OC)c12` [Example 132, N-(4-((4-methoxy-5-(methoxymethyl)-1-methyl-1H-indazol-3-yl)amino)-5-(propanoyl-3,3,3-d3)pyridin-2-yl)cyclopropanecarboxamide], the results for the IC50 (on TYK2-JH2 domain (setting [2]); in assay [1] (setting [3])) were 0.174 nM and 25.9 nM, respectively.
Taken in the same sequence, the figures for `COCc1ccc2c(c(Nc3cc(NC(=O)C4CC4)ncc3C(=O)OC)nn2C)c1OC` [Example 133, Methyl 6-(cyclopropanecarboxamido)-4-((4-methoxy-5-(methoxymethyl)-1-methyl-1H-indazol-3-yl)amino)nicotinate] were 0.288 nM and 53.3 nM.
Regarding `[2H]C([2H])([2H])NC(=O)c1nnc(NC(=O)C2CC2)cc1Nc1nn(C)c2ccc([C@H](OC([2H])([2H])[2H])C(F)(F)F)c(OC)c12` [Example 135, (S)-6-(cyclopropanecarboxamido)-4-((4-methoxy-1-methyl-5-(2,2,2-trifluoro-1-(methoxy-d3)ethyl)-1H-indazol-3-yl)amino)-N-(methyl-d3)pyridazine-3-carboxamide], the IC50 on TYK2-JH2 domain (setting [2]) turned out to be 0.07 nM; in assay [1] (setting [3]) it was 0.327 nM.
With `COC(=O)c1cnc(NC(=O)C2CC2)cc1Nc1nn(C)c2ccc(Cl)c(OC)c12` [Example 137, Methyl 4-((5-chloro-4-methoxy-1-methyl-1H-indazol-3-yl)amino)-6-(cyclopropanecarboxamido)nicotinate], the IC50 at TYK2-JH2 domain (setting [2]) came to 0.377 nM; in assay [1] (setting [3]) it was 99.8 nM.
The like results for `COC(=O)c1cnc(Nc2ccc(F)cn2)cc1Nc1nn(C)c2ccc(C(OC)C(F)(F)F)c(OC)c12` (stereo not shown) [Example 142, Methyl 6-((5-fluoropyridin-2-yl)amino)-4-((4-methoxy-1-methyl-5-(2,2,2-trifluoro-1-methoxyethyl)-1H-indazol-3-yl)amino)nicotinate] were, in that order, 0.185 nM and 12 nM.
The like results for `COC(=O)c1cnc(NC(=O)C2CC2)cc1Nc1nn(C)c2ccc(CC#N)c(OC)c12` [Example 145, Methyl 4-((5-(cyanomethyl)-4-methoxy-1-methyl-1H-indazol-3-yl)amino)-6-(cyclopropanecarboxamido)nicotinate] were, in that order, 0.151 nM and 15.2 nM.
The like results for `[2H]C([2H])([2H])CC(=O)c1cnc(NC(=O)C2CC2)cc1Nc1nn(C)c2ccc(Cl)c(OC)c12` [Example 147, N-(4-((5-chloro-4-methoxy-1-methyl-1H-indazol-3-yl)amino)-5-(propanoyl-3,3,3-d3)pyridin-2-yl)cyclopropanecarboxamide] were, in that order, 0.146 nM and 23.8 nM.
As for `COC(=O)c1cnc(NC(=O)C2CC2)cc1Nc1nn(C)c2ccc(CC(F)(F)F)c(OC)c12` [Example 148, Methyl 6-(cyclopropanecarboxamido)-4-((4-methoxy-1-methyl-5-(2,2,2-trifluoroethyl)-1H-indazol-3-yl)amino)nicotinate], the IC50 on TYK2-JH2 domain (setting [2]) was determined as 0.091 nM; in assay [1] (setting [3]), 7.08 nM.
The like results for `[2H]C([2H])([2H])CC(=O)c1cnc(NC(=O)C2CC2)cc1Nc1nn(C)c2ccc(C(OC)C3(F)CC3)c(OC)c12` (stereo not shown) [Example 150, N-(4-((5-((1-fluorocyclopropyl)(methoxy)methyl)-4-methoxy-1-methyl-1H-indazol-3-yl)amino)-5-(propanoyl-3,3,3-d3)pyridin-2-yl)cyclopropanecarboxamide] were, in that order, 0.154 nM and 32.7 nM.
`[2H]C([2H])([2H])O[C@@H](c1ccc2c(c(Nc3cc(NC(=O)C4CC4)ncc3C(=O)NC)nn2C)c1OC)C(F)(F)F` [Example 151, (5)-6-(cyclopropanecarboxamido)-4-((4-methoxy-1-methyl-5-(2,2,2-trifluoro-1-(methoxy-d3)ethyl)-1H-indazol-3-yl)amino)-N-methylnicotinamide]: the IC50 at TYK2-JH2 domain (read-out: TYK2 JH2 Binding IC50; JH2 domain enzyme; 60 min at 25°C, then 4°C overnight) was found to be 0.053 nM; in assay [1] (BaF3, 72 h compound treatment), 0.213 nM.
On to `[2H]C([2H])([2H])NC(=O)c1cnc(NC(=O)C2CC2)cc1Nc1nn(C)c2ccc([C@H](OC)C(F)(F)F)c(OC([2H])([2H])[2H])c12` [Example 152, (S)-6-(cyclopropanecarboxamido)-4-((4-(methoxy-d3)-1-methyl-5-(2,2,2-trifluoro-1-methoxyethyl)-1H-indazol-3-yl)amino)-N-(methyl-d3)nicotinamide], for which the IC50 at TYK2-JH2 domain (setting [2]) was 0.071 nM; in assay [1] (setting [3]), 0.284 nM.
The like results for `[2H]C([2H])([2H])NC(=O)c1cnc(NC(=O)C2CC2)cc1Nc1nn(C([2H])([2H])[2H])c2ccc([C@H](OC)C(F)(F)F)c(OC)c12` [Example 153, (S)-6-(cyclopropanecarboxamido)-4-((4-methoxy-1-(methyl-d3)-5-(2,2,2-trifluoro-1-methoxyethyl)-1H-indazol-3-yl)amino)-N-(methyl-d3)nicotinamide] were, in that order, 0.055 nM and 0.235 nM.

The values above are taken from patent publication EP4813463A2, “TYK2 INHIBITORS AND COMPOSITIONS AND METHODS THEREOF” (Lynk Pharmaceuticals Co. Ltd., priority 2023, dated 2024).
